From patent publication US4847241A, “Fluorenyl substituted tyrosyl dipeptide amides which are useful in treating pain” (priority 1988, dated 1989)

How the values were obtained:
Writhing Mouse = experiment: Writhing Assay (phenylbenzoquinone); type: in vivo, mice; settings: 30 min before phenylbenzoquinone i.p., Active refers to the effect of the screening dose; for Writhing Mouse, Oral: screening dose 10 mg/kg p.o. (intragastric); for Writhing Mouse, Subc.: screening dose 10 mg/kg s.c.
Experimental: Male Charles River albino mice (CD-1/HAM/1LR) weighing between 20 and 30 grams were used. Thirty minutes after subcutaneous or intragastric administration of the test compound (0.1 mg/10 gram body weight), 0.025% (w/v) phenylbenzoquinone was injected intraperitoneally (0.1 ml/10 gram body weight). Five minutes later, each mouse was placed in a large glass beaker and the number of writhes that occurred in the subsequent ten minutes is counted. A writhe consisted of dorsoflexion of the back, extension of the hindlimbs, and strong contraction of the abdominal musculature. The test compound was considered to have produced analgesia in a mouse if the number of writhes elicited by phenylbenzoquinone was equal to or less than one-half the median number of writhes recorded for the saline-treated group that day. The results were expressed as the number of mice (out of a possible ten) in which the test compound produced analgesia.

[1] = test system: opiate receptors isolated from rat brain; type: binding; settings: 1 nM 3H-Naloxone, rat brain receptor membranes, screening concentration 10^-5 molar
rat = settings: injected directly into the brain of the rat; cited from earlier work

Compound	Writhing Mouse, Oral (Writhing Mouse)	Writhing Mouse, Subc. (Writhing Mouse)	Opiate Binding, IC50 [1]	analgesic activity (rat)	IC50 ([1]; read-out: Opiate Binding, IC50)
Cc1cc(O)cc(C)c1C[C@H](N)C(=O)N[C@H](C)C(=O)NCCc1cccs1.Cl [Example 39, 2,6-dimethyl-L-tyrosyl-N-[2-(2-thienyl)ethyl]-D-alainamide, monohydrochloride]	Inactive	Inactive	–	–	–
α-amino-4-hydroxy-2,6-dimethyl-N-[1R-methyl-2-oxo-2-(1,2,3,4-tetrahydro-2-isoquinolinyl)ethyl]benzenepropanamide, monohydrochloride [Example 37]	Inactive	Inactive	–	–	–
2,6-dimethyltyrosyl-N-[3-(2-thienyl)-2E-propenyl]-D-alaninamide, monohydrochloride [Example 52]	Inactive	Active	–	–	–
Cc1cc(O)cc(C)c1C[C@H](N)C(=O)N[C@H](C)C(=O)N1CCc2ccccc2C1.Cl (single isomer, unassigned) [Example 35, α-amino-4-hydroxy-2,6-dimethyl-N-[1R-methyl-2-oxo-2-(1,2,3,4-tetrahydro-2-isoquinolinyl)ethyl]benzenepropanamide, monohydrochloride, isomer S]	Active	Active	–	–	–
Cc1cc(O)cc(C)c1C[C@H](N)C(=O)N[C@@H](C)C(=O)N1CCCc2ccccc21.Cl (relative stereo) [Example 29, αS-R*-amino-4-hydroxy-2,6-dimethyl-N-[1S*-methyl-2-oxo-2-(1,2,3,4-tetrahydro-1-quinolinyl)ethyl]benzenepropanamide, monohydrochloride]	Inactive	Inactive	–	–	–
C[C@@H](NC(=O)OCc1ccccc1)C(=O)NC1Cc2ccccc2C1 [Example 20, phenylmethyl [2-[(2,3-dihydro-1H-inden-2-yl)amino]-1R-methyl-2-oxoethyl]carbamate]	Inactive	Active	Inactive	–	–
Cc1cc(O)cc(C)c1CC(NC(=O)OC(C)(C)C)C(=O)N[C@H](C)C(=O)NCCOc1ccccc1 (mixture of isomers) [Example 115, N-[(1,1-dimethylethoxy)carbonyl]02,6-dimethyl-DL-tyrosyl-N-(2-phenoxyethyl)-D-alaninamide]	Active	Active	–	–	–
C[C@@H](N)C(=O)NC1Cc2ccccc2C1 [Example 21, 2R-amino-N-(2,3-dihydro-1H-inden-2-yl)propanamide]	Inactive	Active	Inactive	–	–
2,6-dimethyltyrosyl-N-[3-(3-thienyl)-2E-propenyl]-D-alaninamide, monohydrochloride [Example 58]	Inactive	Active	–	–	–
2,6-dimethyltyrosyl-N-(6-methoxy-6-oxohexyl)-D-alaninamide, monohydrochloride [Example 5]	Inactive	Inactive	–	–	–
COc1ccc(CCCNC(=O)[C@@H](C)N)cc1 [Example 60, αR-amino-N-[3-(4-methoxyphenyl)propyl]propanamide]	Active	Active	–	–	–
2,6-dimethyltyrosyl-N-(6-methoxy-6-oxohexyl)-D-alaninamide, monohydrochloride [Example 7]	Inactive	Inactive	–	–	–
Cc1cc(O)cc(C)c1CC(N)C(=O)N[C@H](C)C(=O)N1CCCc2ccccc21.Cl (stereo partly drawn) [Example 30, α-amino-4-hydroxy-2,6-dimethyl-N-[1R-methyl-2-oxo-2-(1,2,3,4-tetrahydro-1-quinolinyl)ethyl]benezenepropanamide, monohydrochloride]	Inactive	Inactive	–	–	–
Cc1cc(O)cc(C)c1C[C@H](N)C(=O)N[C@H](C)C(=O)NCCC(c1ccccc1)c1ccccc1.Cl [Example 73, 2,6-dimethyltyrosyl-N-(3,3-diphenylpropyl)-D-alaninamide, monohydrochloride]	Inactive	Active	–	–	–
Cc1cc(O)cc(C)c1CC(NC(=O)OC(C)(C)C)C(=O)N[C@H](C)C(=O)NCCSc1ccccc1 (mixture of isomers) [Example 108, N-[(1,1-dimethylethoxy)carbonyl]-2,6-dimethyl-DL-tyrosyl-N-[2-(phenylthio)ethyl]-D-alaninamide]	Inactive	Active	–	–	–
2,6-dimethyltyrosyl-N-(2,3-dihydro-1H-inden-2-yl)-D-alaninamide, monohydrochloride [Example 24]	Inactive	Lethal	–	–	–
2-(2R-amino-1-oxopropyl)-1,2,3,4-tetrahydroisoquinoline, monohydrochloride [Example 32]	Active	Inactive	Inactive	–	–
C[C@@H](NC(=O)OCc1ccccc1)C(=O)N1CCCc2ccccc21 [Example 25, phenylmethyl [1R-methyl-2-oxo-2-(1,2,3,4-tetrahydro-1-quinolinyl)ethyl]carbamate]	Inactive	Inactive	–	–	–
Cc1cc(O)cc(C)c1C[C@H](N)C(=O)N[C@H](C)C(=O)NCCSc1ccccc1.Cl [Example 109, 2,6-dimethyltyrosyl-N-[2-(phenylthio)ethyl]-D-alaninamide, monohydrochloride]	Inactive	Active	–	–	–
methionine enkepthalin	–	–	–	weak, fleeting analgesic activity	–
C[C@@H](N)C(=O)NCCCc1cccs1 [Example 44, 2R-amino-N-[3-(2-thienyl)propyl]propanamide]	Active	Active	Inactive	–	–
Cc1cc(O)cc(C)c1C[C@H](N)C(=O)N[C@H](C)C(=O)NCCCc1cccs1.Cl (single isomer, unassigned) [Example 46, 2,6-dimethyltyrosyl-N-[3-(2-thienyl)propyl]-D-alaninamide, monohydrochloride DF isomer]	Inactive	Inactive	–	–	220 nM
2,6-dimethyltyrosyl-N-[3-(2-thienyl)propyl]-D-alaninamide, monohydrochloride [Example 47]	Active	Active	–	–	–
